# Laboratory results published in US5869500A, “Pyridone compounds useful in treating Alzheimer's disease” (Hoffmann-La Roche Inc., priority 1996, dated 1999).
# Tested on: Aβ production in HEK cells over-expressing mutated β-APP (SFAD)
# Assay: Aβ production inhibition, sandwich-ELISA in HEK cells, over-expressed mutated β-APP (SE-SFAD)
# Type: cell-based, human
# Settings: Homo sapiens, HEK293, HEK cells; for IC50: based on the respective plateau of maximum inhibition; for Emax: maximum inhibition plateau, read-out: SE-SFAD max. inhibition %
# Protocol: The effect of test substances on the inhibition of Aβ-amyloid production can be measured in the supernatant of cell cultures of β-APP expressed cells using ELISA tests or other quantitative determination methods for β-APP degradation products. Typically, 8×10^5 cells (e.g. HEK cells, which express recombinant human β-APP variants) are plated out in each well of a culture dish having 24 wells in growth media such as e.g. OPTIMEM (Gibco) and the test compound is then added. After an incubation period of 24 to 48 hours at 37° C. in a 10% CO2 atmosphere the supernatant is removed from the cell cultures and the β-APP degradation products (e.g. Aβ or β-[…]) are determined with the aid of ELISA (or sandwich ELISA) analysis or by means of quantitative immunoprecipitation (after metabolic radiolabelling of the cell proteins). Typically, 300 μl of the cell supernatant are tested according to the state of the art for ELISA tests in culture dishes having 96 wells. In the case of sandwich ELISA for Aβ, the binding antibody can be directed against the first 16 amino acids of Aβ-peptide (e.g. 6E10 Senetek, Maryland Heights, Mo.) and the detection antibody can be directed against amino acids 17-40 or 17-42 of Aβ and carries a detection system such as e.g. peroxidase. A simple ELISA test with an antibody, e.g. 22C11 (Boehringer Mannheim), can be used as the test for […]; the second antibody can be an anti-(mouse) Ig having a detection system, such as e.g. peroxidase. The peroxidase reaction can be carried out e.g. using a TMB substrate (BioRAD) and the measurements can be carried out at 650 nm using an ELISA reading apparatus. […] SE-SFAD signifies the Aβ production inhibition measured using sandwich-ELISA in HEK cells, SFAD signifies over-expressed mutated β-APP, and SE-WT signifies the Aβ production inhibition measured using sandwich-ELISA in HEK cells which over-express Wild type β-APP. The IC50 values are based on the respective plateau of maximum inhibition.
SMILES,IC50,Emax
"O=C(O[C@@H]1CN(C(=O)OCc2ccccc2)C[C@@H]1O)c1cc(-c2ccccc2)c(=O)n2ccc3ccsc3c12 (racemic) [Compound 57, (3RS,4SR)-1-Benzyloxy-carbonyl-4-hydroxy-pyrrolidin-3-yl 7-oxo-8-phenyl-7H-thieno[2,3-a]quinolizine-10-carboxylate]",0.5 µM,35%
"COCCN(C(=O)c1cc(-c2ccc(OCc3ccccc3)cc2)c(=O)n2ccc3cc(C(C)O)sc3c12)c1ccccc1 (racemic) [Compound 75, (RS)-8-(4-Benzyloxy-phenyl)-2-(1-hydroxy-ethyl)-7-oxo-7H-thieno[2,3-a]quinolizine-10-carboxylic acid (2-methoxy-ethyl)-phenyl-amide]",1.3 µM,100%
"O=C1CN(C(=O)c2cc(-c3ccccc3)c(=O)n3ccc4ccsc4c23)C1 [Compound 7, 10-(3-Oxo-azetidin-1-carbonyl)-8-phenyl-thieno[2,3-a]quinolizin-7-one]",50 µM,100%
"COC(=O)c1cc(-c2ccccc2)c(=O)n2ccc3ccsc3c12 [Compound 15, Methyl 7-oxo-8-phenyl-7H-thieno[2,3-a]quinolizine-10-carboxylate]",3 µM,60%
"COC(=O)c1cc(-c2cccc(C(F)(F)F)c2)c(=O)n2ccccc12 [Compound 17, Methyl 4-oxo-3-(3-trifluoromethyl-phenyl)-4H-quinolizine-1-carboxylate]",0.5 µM,30%
O=C(NC1CCCCC1O)c1cc(-c2ccccc2)c(=O)n2ccc3ccsc3c12 (stereo not shown) [Compound 25],10 µM,100%
"Cn1ccnc1COC(=O)c1cc(-c2ccccc2)c(=O)n2ccc3ccsc3c12 [Compound 27, 1-Methyl-1H-imidazol-2-yl-methyl 7-oxo-8-phenyl-7H-thieno[2,3-a]-quinolizine-10-carboxylate methanesulphonate]",50 µM,100%
"NC(=O)c1cc(-c2ccccc2)c(=O)n2ccc3ccsc3c12 [Compound 56, 7-Oxo-8-phenyl-7H-thieno[2,3-a]quinolizine-10-carboxylic acid amide]",1 µM,35%
"CCN(CC)Cc1cccc(COC(=O)c2cc(-c3ccccc3)c(=O)n3ccc4ccsc4c23)c1 [Compound 60, 3-Diethylamino-methyl-benzyl 7-oxo-8-phenyl-7H-thieno[2,3-a]-quinolizine-10-carboxylate methanesulphonate]",1.2 µM,100%
"COCCNC(=O)c1cc(-c2ccc(OCc3ccccc3)cc2)c(=O)n2ccc3ccsc3c12 [Compound 66, 8-(4-Benzyloxy-phenyl)-7-oxo-7H-thieno[2,3-a]quinolizine-10-carboxylic acid (2-methoxy-ethyl)-amide]",22 µM,60%
"CCN(CCOC)C(=O)c1cc(-c2ccc(OCc3ccccc3)cc2)c(=O)n2ccc3ccsc3c12 [Compound 68, 8-(4-Benzyloxy-phenyl)-7-oxo-7H-thieno[2,3-a]quinolizine-10-carboxylic acid ethyl-(2-methoxy-ethyl)-amide]",8 µM,25%
"COCCN(C(=O)c1cc(-c2ccc(OCc3ccccc3)cc2)c(=O)n2ccc3ccsc3c12)C(C)C [Compound 69, 8-(4-Benzyloxy-phenyl)-7-oxo-7H-thieno[2,3-a]quinolizine-10-carboxylic acid isopropyl-(2-methoxy-ethyl)-amide]",0.8 µM,45%
"COCCN(CC1CC1)C(=O)c1cc(-c2ccc(OCc3ccccc3)cc2)c(=O)n2ccc3ccsc3c12 [Compound 70, 8-(4-Benzyloxy-phenyl)-7-oxo-7H-thieno[2,3-a]quinolizine-10-carboxylic acid cyclopropylmethyl-(2-methoxy-ethyl)-amide]",< 1 µM,100%
"COCCN(Cc1ccccc1)C(=O)c1cc(-c2ccc(OCc3ccccc3)cc2)c(=O)n2ccc3ccsc3c12 [Compound 71, 8-(4-Benzyloxy-phenyl)-7-oxo-7H-thieno[2,3-a]quinolizine-10-carboxylic acid benzyl-(2-methoxy-ethyl)-amide]",0.57 µM,100%
"COCCN(C(=O)c1cc(-c2ccc(OCc3ccccc3)cc2)c(=O)n2ccc3ccsc3c12)c1ccccc1 [Compound 72, 8-(4-Benzyloxy-phenyl)-7-oxo-7H-thieno[2,3-a]quinolizine-10-carboxylic acid (2-methoxy-ethyl)-phenyl-amide]",0.5 µM,100%
"O=C(c1cc(-c2ccc(OCc3ccccc3)cc2)c(=O)n2ccc3ccsc3c12)N(CCO)c1ccccc1 [Compound 73, 8-(4-Benzyloxy-phenyl)-7-oxo-7H-thieno[2,3-a]quinolizine-10-carboxylic acid (2-hydroxy-ethyl)-phenyl-amide]",1.3 µM,55%
COCCN(C(=O)c1cc(-c2ccc(OCc3ccccc3)cc2)c(=O)n2ccc3cc(C)sc3c12)c1ccccc1 [Compound 74],0.3 µM,100%
"COCCN(C(=O)c1cc(-c2ccc(OCc3ccccc3)cc2)c(=O)n2ccc3cc(C(=O)N(C)C)sc3c12)c1ccccc1 [Compound 76, 8-(4-Benzyloxy-phenyl)-7-oxo-7H-thieno[2,3-a]quinolizine-2,10-dicarboxylicacid 2-dimethylamide 10-[(2-methoxy-ethyl)-phenyl-amide]]",2.8 µM,40%
"CCc1cc2ccn3c(=O)c(-c4ccc(OCc5ccccc5)cc4)cc(C(=O)N(CCOC)c4ccccc4)c3c2s1 [Compound 78, 8-(4-Benzyloxy-phenyl)-2-ethyl-7-oxo-7H-thieno[2,3-a]quinolizine-10-carboxylic acid (2-methoxy-ethyl)-phenyl-amide]",–,40%
"CCCc1cc2ccn3c(=O)c(-c4ccc(OCc5ccccc5)cc4)cc(C(=O)N(CCOC)c4ccccc4)c3c2s1 [Compound 79, 8-(4-Benzyloxy-phenyl)-2-propyl-7-oxo-7H-thieno[2,3-a]quinolizine-10-carboxylic acid (2-methoxy-ethyl)-phenyl-amide]",–,20 to 35%
"COCCN(C(=O)c1cc(-c2ccc(OCc3ccccc3)cc2)c(=O)n2ccc3cc(C(=O)O)sc3c12)c1ccccc1 [Compound 80, 8-(4-Benzyloxy-phenyl)-10-[(2-methoxy-ethyl)-phenyl-carbamoyl]-7-oxo-7H-thieno[2,3-a]quinolizine-2-carboxylic acid]",1 to 3 µM,30 to 70%
"CCN(CCOC)C(=O)c1cc(-c2ccc(-c3ccccc3)cc2)c(=O)n2ccc3ccsc3c12 [Compound 93, 8-(Biphenyl-4-yl)-7-oxo-7H-thieno[2,3-a]quinolizine-10-carboxylic acid ethyl-(2-methoxy-ethyl)-amide]",4.2 µM,100%
"CCOC(=O)c1cc(-c2ccc(-c3ccccc3)cc2)c(=O)n2ccc3ccsc3c12 [Compound 94, Ethyl 8-(biphenyl-4-yl)-7-oxo-7H-thieno[2,3-a]quinolizine-10-carboxylate]",–,20 to 40%
"COCCN(CCOC)C(=O)c1cc(-c2ccc(-c3ccccc3)cc2)c(=O)n2ccc3ccsc3c12 [Compound 95, 8-(Biphenyl-4-yl)-7-oxo-7H-thieno[2,3-a]quinolizine-10-carboxylic acid bis-(2-methoxy-ethyl)-amide]",1.3 µM,100%
"COC(=O)c1cc(-c2ccc(Oc3ccccc3)cc2)c(=O)n2ccc3ccsc3c12 [Compound 96, Methyl 7-oxo-8-(4-phenoxy-phenyl)-7H-thieno[2,3-a]quinolizine-10-carboxylate]",1 µM,40%
"COCCN(CCOC)C(=O)c1cc(-c2ccc(Oc3ccccc3)cc2)c(=O)n2ccc3ccsc3c12 [Compound 97, 7-Oxo-8-(4-phenoxy-phenyl)-7H-thieno[2,3-a]quinolizine-10-carboxylic acid bis-(2-methoxy-ethyl)-amide]",2.2 µM,100%
"COCCNC(=O)c1cc(-c2ccc(Oc3ccccc3)cc2)c(=O)n2ccc3ccsc3c12 [Compound 98, 7-Oxo-8-(4-phenoxy-phenyl)-7H-thieno[2,3-a]quinolizine-10-carboxylic acid (2-methoxy-ethyl)-amide]",2.4 µM,70 to 90%
"CCN(CCOC)C(=O)c1cc(-c2ccc(Oc3ccccc3)cc2)c(=O)n2ccc3ccsc3c12 [Compound 99, 7-Oxo-8-(4-phenoxy-phenyl)-7H-thieno[2,3-a]quinolizine-10-carboxylic acid ethyl-(2-methoxy-ethyl)-amide]",2.5 µM,100%
"COCCN(Cc1ccccc1)C(=O)c1cc(-c2ccc(Oc3ccccc3)cc2)c(=O)n2ccc3ccsc3c12 [Compound 100, 7--Oxo-8-(4-phenoxy-phenyl)-7H-thieno[2,3-a]quinolizine-10-carboxylic acid benzyl-(2-methoxy-ethyl)-amide]",0.6 µM,100%
